How the values were obtained:
[1] = test system: Jun N-terminal kinase (JNK) phosphorylation in H9c2 cells; test: H2O2-induced JNK phosphorylation, immunoblotting; assay type: cell-based, rat
From the text: FIGS. 3A-3H. […] FIGS. 3A-3B. […] FIG. 3A. […] FIG. 3B. […] FIGS. 3C-3D. […] FIG. 3D. […] FIGS. 3E-3F. […] FIG. 3E. Representative blots are shown. […] FIG. 3F. […] FIG. 3G. […] FIG. 3H.

[2] = test system: streptozotocin diabetic mice; test: Fasting blood glucose and intraperitoneal glucose tolerance test; assay type: in vivo; conditions: fasting blood glucose and IPGTT after three months
From the text: The water was replenished twice a week.
Over the three-month treatment period, the non-diabetic mice gained an average of 4.1±0.8 g. while the diabetic mice lost an average of 0.3 g, with wide variation in weight change among the latter mice.

[3] = physiological conditions; 50 mM potassium phosphate pH 7.4, three-fold molar excess of reductant
Experimental: H9c2 cells were incubated for 30 min with vehicle, 2.5 μM cobinamide, or 5 μM rotenone, the latter in the absence or presence of 2.5 μM cobinamide, imisopasem, MnTBAP, or cobalamin; 5 μM MitoSOX was added during the last 10 min. The cells were incubated with 1 mg/ml DAPI for 3 min to counterstain nuclei, and then visualized under a fluorescence microscope. […] Equal-sized representative areas for each condition are shown for MitoSOX staining (red fluorescence) and the same area showing merged MitoSOX and DAPI staining. […] The amount of red fluorescence was quantified by Image J analysis. Data are the mean±SD of three independent experiments; in each experiment two separate equal-sized areas were analyzed containing ˜75 cells per area. […] H9c2 cells were incubated for 10 min with 10 μM JC-1, washed once with PBS, and then incubated for 30 min with vehicle, 2.5 μM cobinamide, or 5 μM rotenone in the absence or presence of 2.5 μM of the indicated drugs as described in Panels A, B. FIG. 3C. Cells were visualized under a fluorescence microscope and equal-sized representative areas of each condition are shown, with red and green fluorescence shown for the same area. […] The amount of red and green fluorescence was quantified by Image J analysis and the red to green ratio was calculated. The slides were analyzed by an operator who was blinded to the specific conditions. Data are the mean±SD of three independent experiments; in each experiment two separate equal-sized areas were analyzed containing ˜75 cells per area. […] Blots from four independent experiments were analyzed by densitometric scanning (Li-Cor Odyssey software) in a range where band intensity was linear. The ratio of the pJNK band to GAPDH was calculated, and the results normalized to control untreated cells. […] The UV-visible spectrum of Chi(III) in 50 mM potassium phosphate buffer, pH 7.4 was recorded before (black line) and immediately after adding a three-fold molar excess of ascorbate (blue line), cysteine (teal line), or reduced glutathione (GSH, pink line). […]

## C/C1=C2/[N-][C@H]([C@H](CC(N)=O)[C@@]2(C)CCC(=O)NC[C@@H](C)O)[C@]2(C)N=C(/C(C)=C3N=C(/C=C4N=C1[C@@H](CCC(N)=O)C\4(C)C)[C@@H](CCC(N)=O)[C@]\3(C)CC(N)=O)[C@@H](CCC(N)=O)[C@]2(C)CC(N)=O.[Co+3] [cobinamide, aquohydroxo-cobinamide]
[1]; H9c2, 100 μM H2O2 30 min, drugs at 100 μM
  JNK phosphorylation in H2O2-treated cells: reduced JNK phosphorylation to a level that was indistinguishable from vehicle-treated cells
[1]; H9c2, drug alone
  JNK phosphorylation or total cellular JNK in the absence of H2O2: neither Cbi(III), Cbi(II) nor the other three drugs affected JNK phosphorylation
[2]
  Glucose intolerance versus mice not receiving drug: same degree of glucose intolerance
[3]
  Reduction by ascorbate, cysteine and reduced glutathione (GSH): readily reduced to Cbi(II)
